In ChEMBL document CHEMBL1201862, “PubChem BioAssay data set” (2004):
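Exposure lasted 48 hours, with cells grown in 96-well plates and compounds tested at five concentrations. At the GI50, growth is halved.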 Calls of active or inactive are those of the source. Cut-off read from the data, not from the text of the source: active = GI50 up to about 1.1 µM and inactive = higher.

Tests used:
Experiment in all cases: growth of human tumour cells (NCI), 48 h
[1] = tested on: OVCAR-8
[2] = tested on: RPMI-8226
[3] = tested on: CCRF-CEM
[4] = tested on: M14
[5] = tested on: 786-0
[6] = tested on: SF-268
[7] = tested on: A498
[8] = tested on: RXF 393
[9] = tested on: MOLT-4
[10] = tested on: DLD-1
[11] = tested on: UACC-62
[12] = tested on: CAKI-1
[13] = tested on: OVCAR-3
[14] = tested on: LOX IMVI
[15] = tested on: SK-MEL-28
[16] = tested on: SR

Measured: GI50

COc1cccc2c1[C@H]1OC(=O)NC1CCCCC2 (stereo not given in full)
inactive: [1] > 100 µM | [2] > 100 µM | [3] > 100 µM | [4] > 100 µM | [5] > 100 µM | [6] > 100 µM | [7] > 100 µM | [8] > 100 µM | [9] > 100 µM | [10] > 100 µM | [11] > 100 µM | [12] > 100 µM | [13] > 100 µM | [14] > 100 µM | [15] > 100 µM

CN(C)CCNC(=O)c1cccc2c(Nc3ccc(S(=O)(=O)N=C(N)N)cc3)c3ccccc3nc12
inactive: [1] 8.79 µM | [3] 2.57 µM | [4] 30.8 µM | [5] 18 µM | [6] 7.24 µM | [8] 28 µM | [9] 2.03 µM | [10] 69.8 µM | [16] 2.61 µM | [11] 10.3 µM | [14] 5.94 µM | [15] 24.5 µM

CSc1nc(NC2OCC(OC(C)=O)C(OC(C)=O)C2OC(C)=O)c2c(OC(C)=O)c(C)c(=O)oc2n1 (stereo not given)
inactive: [1] > 100 µM | [2] > 100 µM | [3] > 100 µM | [4] > 100 µM | [5] > 100 µM | [7] > 100 µM | [8] > 100 µM | [9] > 100 µM | [10] > 100 µM | [11] > 100 µM | [12] > 100 µM | [13] > 100 µM | [14] > 100 µM

CC1CCP(=O)(c2ccccc2)CC1 (stereo not given)
inactive: [1] > 100 µM | [2] > 100 µM | [3] > 100 µM | [4] > 100 µM | [5] > 100 µM | [6] > 100 µM | [7] > 10 µM | [8] > 100 µM | [9] > 100 µM | [10] > 100 µM | [11] > 100 µM | [12] > 100 µM | [13] > 100 µM | [14] > 100 µM | [15] > 100 µM

CCOC(=O)N1C(=O)C2C3C=CC(C2C1=O)C1C2C(=O)N(C(=O)OCC)C(=O)C2C31 (stereo not given)
inactive: [1] > 100 µM | [2] > 100 µM | [3] > 93.1 µM | [4] > 100 µM | [5] > 83 µM | [6] > 81.3 µM | [7] > 100 µM | [8] > 100 µM | [9] > 100 µM | [10] > 87.3 µM | [11] > 100 µM | [12] > 100 µM | [13] > 100 µM | [14] > 46.6 µM | [15] > 100 µM
